Laboratory results: ChEMBL document CHEMBL4823324, “Discovery of BMS-986318, a Potent Nonbile Acid FXR Agonist for the Treatment of Nonalcoholic Steatohepatitis” (ACS Med Chem Lett, 2021)

What was measured:
[1] = biological target: T1, Peroxisome proliferator-activated receptor alpha (Homo sapiens, UniProt Q07869); assay: Activation of PPARalpha LBD (unknown origin) co-expressed with Gal4UAS-luciferase reporter in HEK293 cells incubated for 24 hrs by Steady-Glo luciferase reporter gene based luminescence analysis; assay type: cell-based
T1 sequence (Q07869 whole entry): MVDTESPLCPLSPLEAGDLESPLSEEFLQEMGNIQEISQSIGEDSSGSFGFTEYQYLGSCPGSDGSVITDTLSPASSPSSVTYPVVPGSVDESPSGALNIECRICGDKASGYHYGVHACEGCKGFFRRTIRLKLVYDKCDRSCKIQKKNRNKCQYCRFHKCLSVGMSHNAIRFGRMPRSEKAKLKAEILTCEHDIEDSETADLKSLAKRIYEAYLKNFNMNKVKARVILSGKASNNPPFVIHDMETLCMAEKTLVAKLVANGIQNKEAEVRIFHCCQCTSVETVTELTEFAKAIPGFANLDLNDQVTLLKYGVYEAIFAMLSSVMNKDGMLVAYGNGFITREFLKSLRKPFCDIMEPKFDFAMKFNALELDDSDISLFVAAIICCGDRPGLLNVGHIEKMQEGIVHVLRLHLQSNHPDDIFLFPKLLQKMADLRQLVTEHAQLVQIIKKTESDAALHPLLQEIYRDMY

[2] = biological target: T2, Peroxisome proliferator-activated receptor delta (Homo sapiens, UniProt Q03181); assay: Activation of PPARdelta LBD (unknown origin) co-expressed with Gal4UAS-luciferase reporter in HEK293 cells incubated for 24 hrs by Steady-Glo luciferase reporter gene based luminescence analysis; assay type: cell-based
T2 sequence (Q03181 whole entry): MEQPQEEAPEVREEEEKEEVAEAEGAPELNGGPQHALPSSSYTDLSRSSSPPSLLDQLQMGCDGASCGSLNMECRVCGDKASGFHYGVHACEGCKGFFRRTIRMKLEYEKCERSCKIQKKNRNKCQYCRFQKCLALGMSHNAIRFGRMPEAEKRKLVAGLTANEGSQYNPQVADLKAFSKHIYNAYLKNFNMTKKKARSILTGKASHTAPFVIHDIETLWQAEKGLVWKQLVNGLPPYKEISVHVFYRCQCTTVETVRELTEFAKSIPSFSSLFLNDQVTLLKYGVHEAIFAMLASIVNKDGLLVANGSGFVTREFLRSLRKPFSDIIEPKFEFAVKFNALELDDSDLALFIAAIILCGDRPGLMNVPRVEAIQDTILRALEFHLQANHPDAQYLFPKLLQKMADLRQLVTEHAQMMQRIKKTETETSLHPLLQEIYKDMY

Estrogen receptor = biological target: T3, Estrogen receptor (Homo sapiens, UniProt P03372); assay: Activation of estrogen receptor alpha (unknown origin) by fluorescence polarization based competition assay
T3 sequence (P03372 whole entry): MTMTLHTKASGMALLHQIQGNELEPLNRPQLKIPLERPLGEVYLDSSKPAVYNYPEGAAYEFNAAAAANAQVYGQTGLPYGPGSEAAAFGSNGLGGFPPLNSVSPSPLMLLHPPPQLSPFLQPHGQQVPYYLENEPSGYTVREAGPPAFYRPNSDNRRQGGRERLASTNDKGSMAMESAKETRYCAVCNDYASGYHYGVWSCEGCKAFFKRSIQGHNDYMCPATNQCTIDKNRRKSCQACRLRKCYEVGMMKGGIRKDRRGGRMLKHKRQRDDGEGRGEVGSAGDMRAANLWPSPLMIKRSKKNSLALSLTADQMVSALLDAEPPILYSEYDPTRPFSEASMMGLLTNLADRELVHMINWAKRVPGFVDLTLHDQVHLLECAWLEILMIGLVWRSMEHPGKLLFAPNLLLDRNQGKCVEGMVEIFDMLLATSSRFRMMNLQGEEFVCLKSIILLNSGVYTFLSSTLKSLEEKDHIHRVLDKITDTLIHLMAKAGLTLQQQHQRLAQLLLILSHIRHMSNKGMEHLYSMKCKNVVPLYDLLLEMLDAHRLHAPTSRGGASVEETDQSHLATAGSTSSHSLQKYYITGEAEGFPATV

[3] = Half life in C57B6 mouse at 2 mg/kg, po administered as suspension; assay type: ADME, organism-based; conditions: in vivo
Cytochrome P450 2C8 = biological target: T4, Cytochrome P450 2C8 (Homo sapiens, UniProt P10632); assay: Inhibition of CYP2C8 (unknown origin) expressed in baculovirus infected insect supersomes preincubated for 15 mins followed by addition of NADPH regenerating system and measured after 2 hrs by fluorescence based analysis; assay type: ADME
T4 sequence (P10632 whole entry): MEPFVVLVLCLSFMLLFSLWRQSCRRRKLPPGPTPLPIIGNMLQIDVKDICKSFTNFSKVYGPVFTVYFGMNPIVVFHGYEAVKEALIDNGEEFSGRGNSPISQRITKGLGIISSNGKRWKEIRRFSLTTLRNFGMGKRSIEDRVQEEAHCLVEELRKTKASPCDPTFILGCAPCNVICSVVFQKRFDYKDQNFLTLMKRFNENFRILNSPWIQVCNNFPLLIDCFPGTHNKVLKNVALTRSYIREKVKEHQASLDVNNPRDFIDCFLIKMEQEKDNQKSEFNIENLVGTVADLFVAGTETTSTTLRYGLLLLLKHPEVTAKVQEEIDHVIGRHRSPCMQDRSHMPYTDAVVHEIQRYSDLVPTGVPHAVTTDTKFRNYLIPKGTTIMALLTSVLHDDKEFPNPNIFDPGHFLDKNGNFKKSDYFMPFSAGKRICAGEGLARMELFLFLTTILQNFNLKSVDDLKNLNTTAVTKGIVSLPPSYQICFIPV

[4] = biological target: T5, Oxysterols receptor LXR-beta (Homo sapiens, UniProt P55055); assay: Activation of human LXRbeta co-expressed with TK-luciferase reporter in African green monkey CV-1 cells incubated for overnight by Steady-Glo luciferase reporter gene based luminescence analysis; assay type: cell-based
T5 sequence (P55055 whole entry): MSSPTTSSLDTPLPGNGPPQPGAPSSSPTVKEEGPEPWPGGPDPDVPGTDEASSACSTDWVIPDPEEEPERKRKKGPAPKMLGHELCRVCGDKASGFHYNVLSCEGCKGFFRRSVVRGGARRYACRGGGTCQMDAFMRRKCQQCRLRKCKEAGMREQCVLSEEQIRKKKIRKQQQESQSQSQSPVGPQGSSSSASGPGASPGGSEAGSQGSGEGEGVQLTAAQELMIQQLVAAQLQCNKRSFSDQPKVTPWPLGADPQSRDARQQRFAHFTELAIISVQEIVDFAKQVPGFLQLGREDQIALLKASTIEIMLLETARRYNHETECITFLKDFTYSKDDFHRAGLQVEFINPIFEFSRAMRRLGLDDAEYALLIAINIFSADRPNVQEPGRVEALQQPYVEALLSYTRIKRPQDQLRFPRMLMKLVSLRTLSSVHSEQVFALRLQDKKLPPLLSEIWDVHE

[5] = Clearance in C57B6 mouse at 1 mg/kg, iv; assay type: ADME, organism-based; conditions: in vivo

EC50 [1]: > 40 µM | EC50 [2]: > 40 µM | EC50 (Estrogen receptor): > 40 µM | half-life [3]: 2 h | IC50 (Cytochrome P450 2C8): 4.2 µM | EC50 [4]: > 40 µM | clearance [5]: 3.8 mL/min/kg
SMILES: O=C(O)c1cc(C(F)(F)F)c2cc(N3CCC4(C=C(c5c(-c6c(Cl)cncc6Cl)noc5C5CC5)C4)CC3)ccc2n1
